According to PubChem BioAssay AID2060497 (Molecular Pharmacology Branch, DTP, NCI, 2025):

Tested on: 317291-083-R-J1-PDC complex spheroids, viability
Test: Anticancer human tumor 317291-083-R-J1-PDC patient-derived soft tissue sarcoma cell line growth inhibition [GQUAD]
Conditions: for IC50: curve of first compound; for viability, T/C: stronger effect = lower value
From the text: DNA G-quadruplex Stabilizer Agents in Combinations in Complex Spheroids
A high-throughput screen of multi-cell type tumor spheroids was designed to identify active combinations of DNA G-quadruplex stabilizer agents and targeted small molecules. Complex spheroids include a stromal component modeled by human endothelial cells (HUVEC) and fibroblasts modeled by human mesenchymal stem cells (MSCs). The concentration ranges selected for each drug and investigational agent were based upon clinically achievable concentrations if the clinical Cmax of the agent was known.
Compounds. The drugs and investigational agents: pidnarulex (CX-5461; NSC782164), APTO-253 (NSC789042), BRACO-19 (NSC847499), peposertib (NSC802822), ceralasertib (NSC780249), elimusertib (NSC800525), camonsertib (NSC841442), AZD-1390 (NSC803789), olaparib (NSC753686), talazoparib (NSC767125), ART-558 (NSC835418), sotorasib (NSC818433), MRTX-1133 (NSC836407), SN-38 (NSC673596), topotecan (NSC609699), etoposide (NSC141540), doxorubicin (NSC123127), gemcitabine (NSC613327), 5-fluorouracil (NSC19893), paclitaxel (NSC125973), vemurafenib (NSC761431), panobinostat (NSC761190), R-306465 (JNJ-16241199; NSC773264), adavosertib (NSC754352), TP-3654 (NSC805149), carboplatin (NSC241240), KSQ-4279 (NSC840948), and staurosporine (NSC755774) were obtained from the National Cancer Institute (NCI) Developmental Therapeutics Program Chemical Repository (34). The FDA-approved anticancer drug set is available from the NCI Developmental Therapeutics Program. […] The stock solutions were prepared in dimethyl sulfoxide (DMSO, Sigma-Aldrich, St. Louis, MO, cat. D2650) at 800-fold the tested concentration and stored at -70 degrees C prior to their use. All drugs and investigational agents were tested over a range starting from a high concentration at or near the clinical Cmax and decreasing in half-log increments. If the clinical Cmax for an agent had not been determined, the highest concentration tested was 10 microM.
2.3 Cell Culture. All cells were maintained in an incubator at 37 degrees C and 5% CO2 with 95% humidity. The PDC lines were cultured according to standard operating procedures established by the NCI PDMR. All PDCs were thawed and cultured in Matrigel-coated flasks prepared with a working solution of 1X Ham's F-12 nutrient mix, without supplementation (Invitrogen, cat. 11765054), 100 U/mL penicillin-streptomycin (Invitrogen, cat. 15140122), and 2.5% Matrigel (Corning Inc., cat. 354248) for the first three passages. The 857933-349-R-J2-PDC line was cultured in 6C/Colon 1B media, which includes advanced DMEM/F-12 (Thermo Fisher Scientific, cat. 12634028), 10 mM HEPES (Thermo Fisher Scientific, cat. 15630080), 1X GlutaMAX supplement (Thermo Fisher Scientific, cat. 35050061), 0.1 mg/mL primocin (InvivoGen, cat. ant-pm-2), 10% defined fetal bovine serum, heat inactivated (HyClone Laboratories Inc., cat. SH30070.03HI), 50% L-WRN conditioned media (ATCC, cat. CRL-3276), 1.25 mM N-Acetyl-L-cysteine (Sigma-Aldrich, cat. A9165), 10 mM nicotinamide (Sigma-Aldrich, cat. N0636), 1X B-27 supplement (Thermo Fisher Scientific, cat. 17504044), 1X N-2 supplement (Thermo Fisher Scientific, cat. 17502048), 10 microM Y-27632 dihydrochloride (Tocris Bioscience, cat. 1254), and 50 ng/mL human EGF recombinant protein (Thermo Fisher Scientific, cat. PHG0311). The 485176-168-R4-J1-PDC line was cultured in Panc media, which includes all 6C/Colon 1B media components plus 100 ng/mL human FGF-10 (Thermo Fisher Scientific, cat. 100-26), 500 nM SB-431542 (Selleckchem, cat. S1067), and gastrin (Tocris, cat. 3006).
[…]
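Further: spheroids exposed to compounds for one week before readout.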
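Wherever viability, T/C is given: percent viability relative to DMSO vehicle wells taken as 100%.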

## COc1cc(C2c3cc4c(cc3C(OC3OC5COC(C)OC5C(O)C3O)C3COC(=O)C23)OCO4)cc(OC)c1O (configuration not stated) + Cc1[nH]c2ccc(F)cc2c1-c1nc2c3cccnc3c3ncccc3c2[nH]1
Second compound 0.0316 µM
  IC50: 0.432 µM
Second compound 0.1 µM
  IC50: 0.276 µM
Second compound 0.316 µM
  IC50: 0.26 µM
Second compound 1 µM
  IC50: 0.26 µM
Second compound 3.16 µM
  IC50: 0.192 µM
Second compound 10 µM
  IC50: 0.222 µM
Second compound 0.0316 µM, first compound 0.0316 µM
  viability, T/C: 103%
Second compound 0.0316 µM, first compound 0.1 µM
  viability, T/C: 93%
Second compound 0.0316 µM, first compound 0.316 µM
  viability, T/C: 59.5%
Second compound 0.0316 µM, first compound 1 µM
  viability, T/C: 25.2%
Second compound 0.0316 µM, first compound 3.16 µM
  viability, T/C: 17.9%
Second compound 0.0316 µM, first compound 10 µM
  viability, T/C: 16.5%
Second compound 0.1 µM, first compound 0.0316 µM
  viability, T/C: 96.2%
Second compound 0.1 µM, first compound 0.1 µM
  viability, T/C: 102%
Second compound 0.1 µM, first compound 0.316 µM
  viability, T/C: 43.5%
Second compound 0.1 µM, first compound 1 µM
  viability, T/C: 28.3%
Second compound 0.1 µM, first compound 3.16 µM
  viability, T/C: 17.6%
Second compound 0.1 µM, first compound 10 µM
  viability, T/C: 9.83%
Second compound 0.316 µM, first compound 0.0316 µM
  viability, T/C: 113%
Second compound 0.316 µM, first compound 0.1 µM
  viability, T/C: 92.7%
Second compound 0.316 µM, first compound 0.316 µM
  viability, T/C: 40.6%
Second compound 0.316 µM, first compound 1 µM
  viability, T/C: 22.5%
Second compound 0.316 µM, first compound 3.16 µM
  viability, T/C: 14.5%
Second compound 0.316 µM, first compound 10 µM
  viability, T/C: 18.4%
Second compound 1 µM, first compound 0.0316 µM
  viability, T/C: 84.7%
Second compound 1 µM, first compound 0.1 µM
  viability, T/C: 94.5%
Second compound 1 µM, first compound 0.316 µM
  viability, T/C: 41.8%
Second compound 1 µM, first compound 1 µM
  viability, T/C: 20.2%
Second compound 1 µM, first compound 3.16 µM
  viability, T/C: 13.6%
Second compound 1 µM, first compound 10 µM
  viability, T/C: 13.2%
Second compound 3.16 µM, first compound 0.0316 µM
  viability, T/C: 80.8%
Second compound 3.16 µM, first compound 0.1 µM
  viability, T/C: 70%
Second compound 3.16 µM, first compound 0.316 µM
  viability, T/C: 34.5%
Second compound 3.16 µM, first compound 1 µM
  viability, T/C: 16.7%
Second compound 3.16 µM, first compound 3.16 µM
  viability, T/C: 16.1%
Second compound 3.16 µM, first compound 10 µM
  viability, T/C: 10%
Second compound 10 µM, first compound 0.0316 µM
  viability, T/C: 73.1%
Second compound 10 µM, first compound 0.1 µM
  viability, T/C: 57.6%
Second compound 10 µM, first compound 0.316 µM
  viability, T/C: 47.7%
Second compound 10 µM, first compound 1 µM
  viability, T/C: 17.7%
Second compound 10 µM, first compound 3.16 µM
  viability, T/C: 11.9%
Second compound 10 µM, first compound 10 µM
  viability, T/C: 16.9%
